Measured values as given in patent USRE47404E1, “Viral hepatitis treatment” (priority 2006, dated 2019).
Where two headings read alike, the source gives them in different places.

Experiments:
HCV replication = test: Effect of nitazoxanide pre-treatment and treatment duration (3 or 6 days) on antiviral activity in replicon cultures; type: cell-based, hepatitis C virus; conditions: for EC50 / EC90: Hepatitis C virus; for EC50, IFNα-2b / EC90, IFNα-2b: expressed as IFNα-2b concentration
Method: Antiviral activity for each test compound was determined as previously described (Okuse et al., 2005, Antiviral Research 65:23-34). Briefly, replicon cell lines were maintained as sub-confluent cultures on 96-well plates. […] Twenty-four hours after the last dose of compound, antiviral activity was determined by blot hybridization analysis of intracellular HCV RNA, and cytotoxicity was assessed by neutral red dye uptake. EC50, EC90, CC50 and selectivity index were calculated for each compound tested in a replicon cell line. […] Selectivity index=CC50 divided by EC50. EC50, EC90 and CC50 values (±standard deviations [S.D.]) were calculated by linear regression analysis using data combined from all treated cultures.
Antiviral activity and cytotoxicity was determined 24 hours after the end of each respective treatment as described previously.

[1] = system: HCV replication in 4-3-10 replicon cell line (subgenomic genotype 1b, JWT cells passaged in ribavirin); test: microbe, parasite or virus in culture; type: cell-based, hepatitis C virus
Method: (§1) Antiviral activity of nitazoxanide, tizoxanide, interferon α, ribavirin and 2′-C-methyl cytidine was assessed in five different HCV replicon cell lines: (1) AVA5, a subgenomic construct of genotype 1b (Blight et al., 2000, Science 290:1972-1974); (2) H/FL-Neo, a genotype 1a full length construct (Blight et al., 2003, Journal of Virology 77:3181-3190); (3) JWT, a subgenomic construct of genotype 1b (Pfeiffer and Kirkegaard, 2005, Journal of Virology, 79:2346-2355); (4) 4-3-10, a subgenomic construct of genotype 1b, developed by a protocol that involved serial passage of JWT cells in 100 μM for one month followed by 400 μM ribavirin for two weeks (Pfeiffer and Kirkegaard, 2005, Journal of Virology, 79:2346-2355); and (5) RP7, a subgenomic construct of genotype 1b (Elazar et al., 2003, Journal of Virology 77:6055-6061).
(§2) Antiviral activity for each test compound was determined as previously described (Okuse et al., 2005, Antiviral Research 65:23-34). Briefly, replicon cell lines were maintained as sub-confluent cultures on 96-well plates. Compounds were added daily for three days in fresh medium. Twenty-four hours after the last dose of compound, antiviral activity was determined by blot hybridization analysis of intracellular HCV RNA, and cytotoxicity was assessed by neutral red dye uptake. EC50, EC90, CC50 and selectivity index were calculated for each compound tested in a replicon cell line. […] Selectivity index=CC50 divided by EC50. EC50, EC90 and CC50 values (±standard deviations [S.D.]) were calculated by linear regression analysis using data combined from all treated cultures.
(§3) Nitazoxanide and tizoxanide were provided by Romark Laboratories, L.C. (Tampa, Fla. USA). […] Ribavirin was purchased from Sigma-Aldrich (St. Louis, Mo. USA). 2′-C-methyl cytidine (Pierra, et al. 2005, Nucleosides Nucleotides Nucleic Acids, 24:767-770) was purchased from Moraveck Biochemicals, Inc. (La Brea, Calif. USA). […] Ribavirin, nitazoxanide, tizoxanide and 2′-C-methyl cytidine were solubilized in 100% tissue culture grade DMSO (Sigma). […] Daily aliquots of test compounds were made from the stock solutions in individual tubes and stored at the appropriate temperatures. On each day of treatment, daily aliquots of the test compounds were suspended into culture medium at room temperature, and immediately added to the cell cultures, thereby subjecting each aliquot of test compound to the same, limited, number of freeze-thaw cycles.

[2] = system: HCV replication in JWT replicon cell line (subgenomic construct of genotype 1b); test: microbe, parasite or virus in culture; type: cell-based, hepatitis C virus
Method: as §1, §2, §3

[3] = system: HCV replication in H/FL-Neo replicon cell line (genotype 1a full length construct); test: microbe, parasite or virus in culture; type: cell-based, hepatitis C virus
Method: as §1, §2, §3

[4] = Cytotoxicity, neutral red dye uptake, H/FL-Neo; type: cell-based; conditions: human
Method: (§7) Briefly, replicon cell lines were maintained as sub-confluent cultures on 96-well plates. Compounds were added daily for three days in fresh medium. Twenty-four hours after the last dose of compound, antiviral activity was determined by blot hybridization analysis of intracellular HCV RNA, and cytotoxicity was assessed by neutral red dye uptake. EC50, EC90, CC50 and selectivity index were calculated for each compound tested in a replicon cell line. EC50=drug concentration producing a 50% reduction of intracellular HCV RNA relative to the average levels in untreated cultures. EC90=drug concentration producing a 90% reduction of intracellular HCV RNA relative to the average levels in untreated cultures. CC50=drug concentration producing a 50% reduction of neutral red dye uptake relative to the average levels in untreated cultures. Selectivity index=CC50 divided by EC50. EC50, EC90 and CC50 values (±standard deviations [S.D.]) were calculated by linear regression analysis using data combined from all treated cultures.

[5] = system: HCV replication in RP7 replicon cell line (subgenomic construct of genotype 1b); test: microbe, parasite or virus in culture; type: cell-based, hepatitis C virus
Method: as §1, §2, §3
(§4) To evaluate the effect of interferon alpha following pre-treatment with nitazoxanide or tizoxanide, a parental replicon-containing cell line (RP-7) was serially passaged in increasing concentrations of nitazoxanide or tizoxanide. Anti-HCV activity of interferon alpha-2b was determined using the parental cell line and using the cell lines obtained after passage in nitazoxanide or tizoxanide. Anti-HCV activity was determined by the methods described above.
(§5) The parental replicon-containing cell line was established by electroporation of RNA transcribed in vitro off of the Sca-I-linearized Bart 79I plasmid into Huh-7 cells (Elazar et al., 2003). Bart79I encodes for a second-generation high-efficiency bi-cistronic sub-genomic replicon of genotype 1b containing a single adaptive mutation (S1179I) in the NS5A gene, and the neomycinphosphotransferase gene in the first cistron. The electroporated cells were plated along with naïve Huh-7 feeder cells and grown in medium—DMEM (4.5 g/l glucose, L-glutamine and sodium pyruvate—Mediatech 10-013-CV), 10% fetal bovine serum, 1% Penicillin-streptomycin, 1% L-glutamine (final concentration 2 mM), 1×MEM Non-Essential Amino Acids (100×) (Invitrogen)—and 1 mg/ml G418. […] One of the resulting colonies was isolated, expanded, passaged in 700 μg/ml G418, and termed RP-7.

AVA5 cells = test: Cytotoxicity, neutral red dye uptake, AVA5; type: cell-based; conditions: AVA5 cell cultures, mono and combination treatments (Table 2)
Method: as §7

[6] = Cytotoxicity, neutral red dye uptake, AVA5; type: cell-based; conditions: human
Method: as §7

[7] = system: HCV replication in AVA5 replicon cell line (subgenomic construct of genotype 1b); test: microbe, parasite or virus in culture; conditions: for S.I. = CC50/EC50: AVA5 cell cultures (Table 2)
Method: as §1, §2, §3
Analyses of interactions between compounds used in combination treatments were performed using Calcusyn™ software (Biosoft, Cambridge, UK).

[8] = Cytotoxicity, neutral red dye uptake, RP7; type: cell-based; conditions: human
Method: (§6) Selectivity index=CC50 divided by EC50.
as §5

[9] = system: HCV replication in five HCV genotype 1-derived replicon cell lines; test: Median over the five HCV replicon cell lines; type: cell-based, hepatitis C virus; conditions: median of the replicon cell lines; for EC50 / EC90: Hepatitis C virus
Method: as §1, §2

[10] = Cytotoxicity, neutral red dye uptake, 4-3-10; type: cell-based; conditions: human
Text: as §6

[11] = Cytotoxicity, neutral red dye uptake, JWT; type: cell-based; conditions: human
Text: as §6

[12] = system: HCV replication in RP7 cells passaged in nitazoxanide; test: HCV replicon antiviral assay, RP7 cells passaged in nitazoxanide; type: cell-based, hepatitis C virus; conditions: cell lines passaged in nitazoxanide or tizoxanide
Method: as §2
as §4, with “above. […]” for “above.”

[13] = Hepatitis C virus, read-out: EC50
[14] = Hepatitis C virus, read-out: EC90
[15] = Hepatitis C virus, GETYPE1B, Ava5, AVA5 cell cultures, mono and combination treatments (Table 2)
[16] = AVA5 cell cultures, mono and combination treatments (Table 2)
[17] = 4-3-10, interferon α-2b in IU/ml
[18] = AVA5 (Table 2), values for IFNα-2b expressed in IU/mL

Compound	S.I. (Selectivity Index) = CC50/EC50 ([1]; 4-3-10)	EC50 ([1]; Hepatitis C virus)	EC90 ([1]; Hepatitis C virus)	S.I. (Selectivity Index) = CC50/EC50 [2]	EC50 [2, 13]	EC90 [2, 14]	S.I. (Selectivity Index) = CC50/EC50 [3]	EC50 [3, 13]	EC90 [3, 14]	CC50 at 3 days [4]	S.I. (Selectivity Index) = CC50/EC50 [5]	EC50 [5, 13]	EC90 [5, 14]	S.I. (Selectivity Index) = CC50/EC50 ([7]; AVA5)	S.I. = CC50/EC50 [7]	EC50 ([7]; Hepatitis C virus, Ava5, 72 h)	EC90 ([7]; Hepatitis C virus, Ava5, AVA5)	CC50 at 3 days [8]	EC50 [9]	EC90 [9]	other results
C[C@@]1(O)[C@H](O)[C@@H](CO)O[C@H]1n1ccc(N)nc1=O [2′-C-methyl cytidine]	>143	2.1 ± 0.1 µM	8 ± 0.9 µM	>136	2.2 ± 0.1 µM	8.2 ± 0.7 µM	>556	1.8 ± 0.2 µM	8.1 ± 0.8 µM	> 1000 µM	>150	2 ± 0.1 µM	9 ± 0.6 µM	>143	>188	2.1 ± 0.2 µM	8.1 ± 0.7 µM	> 300 µM	2.1 µM	8.1 µM	EC50 (HCV replication; 72 h, duration 3 days, expressed as 2′CMeC concentration, read-out: EC50, 2′CMeC): 1.7 ± 0.2 µM; EC90 (HCV replication; 72 h, duration 3 days, expressed as 2′CMeC concentration, read-out: EC90, 2′CMeC): 6.2 ± 0.5 µM; EC50 (HCV replication; 144 h, duration 6 days, expressed as 2′CMeC concentration, read-out: EC50, 2′CMeC): 1.3 ± 0.2 µM; EC90 (HCV replication; 144 h, duration 6 days, expressed as 2′CMeC concentration, read-out: EC90, 2′CMeC): 5.8 ± 0.9 µM; CC50 (AVA5 cells): > 300 µM; CC50 at 3 days ([6]; AVA5 HCV replicon cells): > 300 µM; EC90 [7, 15]: 8.3 ± 0.7 µM
CC(=O)Oc1ccccc1C(=O)Nc1ncc([N+](=O)[O-])s1 [Nitazoxanide, nitazoxanide]	340	0.1 ± 0.03 µM	0.87 ± 0.16 µM	354	0.11 ± 0.01 µM	1 ± 0.2 µM	149	0.33 ± 0.05 µM	1.1 ± 0.1 µM	49 ± 1.5 µM	238	0.16 ± 0.01 µM	1.2 ± 0.1 µM	300	181	0.13 ± 0.02 µM	1 ± 0.2 µM	38 ± 0.8 µM	0.13 µM	1 µM	EC50 (HCV replication; 72 h, duration 3 days, expressed as NTZ concentration, read-out: EC50, NTZ): 0.22 ± 0.03 µM; EC90 (HCV replication; 72 h, duration 3 days, expressed as NTZ concentration, read-out: EC90, NTZ): 1 ± 0.1 µM; EC50 (HCV replication; 144 h, duration 6 days, expressed as NTZ concentration, read-out: EC50, NTZ): 0.2 ± 0.02 µM; EC90 (HCV replication; 144 h, duration 6 days, expressed as NTZ concentration, read-out: EC90, NTZ): 0.92 ± 0.1 µM; CC50 at 3 days ([6]; AVA5): 39 ± 3.9 µM; CC50 at 3 days [6, 16]: 38 ± 1.8 µM; EC90 [7, 15]: 0.93 ± 0.11 µM; CC50 at 3 days [10]: 34 ± 0.4 µM; CC50 at 3 days ([11]; JWT, read-out: CC50): 39 ± 1 µM
NC(=O)c1ncn([C@@H]2O[C@H](CO)[C@@H](O)[C@H]2O)n1 [Ribavirin]				3.9	23 ± 2.2 µM	62 ± 1.7 µM					1.2	69 ± 4.4 µM	122 ± 13 µM	1.2		70 ± 0.5 µM	220 ± 34 µM	77 ± 4.9 µM	69 µM	122 µM	CC50 at 3 days ([6]; AVA5 HCV replicon cells): 84 ± 4.7 µM; CC50 at 3 days [11]: 89 ± 7.5 µM
O=C(Nc1ncc([N+](=O)[O-])s1)c1ccccc1O [Tizoxanide, tizoxanide]	191	0.11 ± 0.05 µM	0.55 ± 0.08 µM	150	0.16 ± 0.02 µM	0.76 ± 0.03 µM	17	0.25 ± 0.03 µM	1 ± 0.1 µM	4.2 ± 0.2 µM	167	0.15 ± 0.01 µM	0.94 ± 0.1 µM	208	100	0.12 ± 0.01 µM	0.77 ± 0.1 µM	25 ± 1 µM	0.15 µM	0.77 µM	CC50 at 3 days ([6]; AVA5): 25 ± 2.8 µM; CC50 at 3 days [6, 16]: 15 ± 1.2 µM; EC90 [7, 15]: 0.81 ± 0.92 µM; CC50 at 3 days [10]: 21 ± 1.1 µM; CC50 at 3 days ([11]; JWT, read-out: CC50): 24 ± 2.9 µM
Interferon α-2b																					EC50, IFNα-2b (HCV replication; duration 3 days): 1.9 ± 0.3 IU/mL; EC90, IFNα-2b (HCV replication; duration 3 days): 8.3 ± 0.9 IU/mL; EC50, IFNα-2b (HCV replication; duration 6 days): 1.7 ± 0.2 IU/mL; EC90, IFNα-2b (HCV replication; duration 6 days): 7.8 ± 0.8 IU/mL; EC50 [1, 17]: 0.86 ± 0.06 IU/ml; EC90 [1, 17]: 5.7 ± 0.4 IU/ml; EC50 ([2]; interferon α-2b in IU/ml): 0.77 ± 0.03 IU/ml; EC90 ([2]; interferon α-2b in IU/ml): 2.6 ± 0.2 IU/ml; EC50 ([3]; interferon α-2b in IU/ml): 2.1 ± 0.2 IU/ml; EC90 ([3]; interferon α-2b in IU/ml): 9.4 ± 0.9 IU/ml; EC50 ([5]; interferon α-2b in IU/ml): 0.41 ± 0.01 IU/ml; EC90 ([5]; interferon α-2b in IU/ml): 3.6 ± 0.2 IU/ml; EC50 [7, 18]: 1.9 ± 0.22 IU/mL; EC90 [7, 18]: 8.9 ± 0.92 IU/mL; EC50 ([7]; AVA5, interferon α-2b in IU/ml): 1.5 ± 0.2 IU/ml; EC90 ([7]; AVA5, interferon α-2b in IU/ml): 8.2 ± 0.8 IU/ml; Median EC50 ([9]; interferon α-2b): 0.86 IU/ml; Median EC90 ([9]; interferon α-2b): 5.7 IU/ml; Resistance after serial passage of the parental cell line in nitazoxanide or tizoxanide [12]: did not induce resistance
